Assay results from patent US20260176289A1, “SMALL MOLECULE INHIBITORS OF KRAS PROTEINS” (Merck Sharp & Dohme LLC, priority 2022, published 2026).
Read-outs that look alike come from different tables or passages of the source.

Columns and labels:
KRAS-WT = KRAS-WT (Homo sapiens, UniProt P01116); assay: SOS-catalyzed nucleotide exchange assay (Procedure A, TR-FRET), KRAS-WT; type: biochemical; conditions: nucleotide exchange, read-out: KRAS WT GNE IC50
Text: (§1) Procedure for SOS-Catalyzed Nucleotide Exchange Assay for KRAS-WT, G12C/D/V, G13D, HRAS, and NRAS (Procedure A)
(§2) Recombinant KRAS-G12C protein used in this assay has an additional triple mutation (C51S/C80L/C118S). Whereas KRAS-WT, G12D/V, G13D, HRAS and NRAS are in context of their WT protein sequence background. Specifically, the SOS-catalyzed nucleotide exchange assay utilizes a preformed TR-FRET complex containing a specific biotinylated RAS protein (KRAS-WT, G12C/V/D, G13D, HRAS, NRAS; described above) with Bodipy-GDP, and Terbium-streptavidin. Compounds are preincubated with this complex for 60 minutes. Subsequently, recombinant human SOS protein and unlabeled GTP are added to initiate the exchange reaction. Small molecule inhibitors stabilize the Bodipy-GDP complex whereas the untreated protein rapidly exchanges Bodipy-GDP for unlabeled GTP resulting in reduced TR-FRET signal.
(§3) To assemble the preformed TR-FRET complexes, each biotinylated RAS protein is diluted to 2 μM in an EDTA Buffer (20 mM HEPES pH 7.5, 50 mM sodium chloride, 10 mM EDTA, and 0.01% Tween) and incubated at room temperature for one hour. This mixture is then further diluted to 90 nM in an Assay Buffer (20 mM HEPES pH 7.5, 150 mM sodium chloride, 10 mM magnesium chloride, and 0.005% Tween) containing 15 nM of Terbium-Streptavidin (Invitrogen, catalog #PV3577) and 900 nM of Bodipy-GDP (Invitrogen, catalog #G22360) and incubated at room temperature for six hours. It should be noted that this preformed TR-FRET complex for each of the RAS protein were made ahead of time, aliquoted and stored at −80° C. until the day of the experiment.
(§4) Each test compound (10 mM stock in DMSO) is diluted in DMSO to make a final-10-point, 3-fold dilution and is acoustically dispensed into a 384-well assay plate (Corning, catalog #3820) using an Echo 550 (Labcyte). Each well of the assay plate receives 3 μL of a specific 3×RAS preformed TR-FRET complex and 3 μL of Assay Buffer and is incubated at room temperature for 60 minutes (preincubation time). Each well then receives 3 μL of 3×recombinant human SOS protein and GTP (Sigma, G8877) in Assay Buffer and is incubated at room temperature for 30 minutes (G13D), 60 minutes (KRAS WT/G12C/D, H/NRAS) or 90 minutes for G12V. The final reaction in each well of 9 μL consists of 3 mM GTP, specific Ras and SOS proteins in the following concentrations: KRAS-G12C/SOS=3 nM/40 nM, KRAS-WT and G12D/SOS=1 nM/40 nM, KRAS-G12V/SOS=1.25 nM/160 nM. KRAS-G13D/SOS=1.25 nM/0 nM, HRAS and NRAS=1.25 nM/40 nM.
(§5) The time-resolved fluorescence resonance energy transfer (TR-FRET) signal is measured on an Envision (PerkinElmer) plate reader: Excitation filter=340 nm; emission 1=495 nm; emission2=520 nm; dichroic mirror=D400/D505; delay time=[…]. The signal of each well is determined as the ratio of the emission at 520 nm to that at 495 nm. Percent effect of each well is determined after normalization to control wells containing DMSO (no effect) or a saturating concentration of inhibitor (max effect). The apparent effect as a function of compound concentration is fit to a four-parameter logistic equation.

KRAS-G12V = KRAS-G12V (Homo sapiens, UniProt P01116, G12V); assay: SOS-catalyzed nucleotide exchange assay (Procedure A, TR-FRET), KRAS-G12V; type: biochemical; conditions: nucleotide exchange, read-out: KRAS G12V GNE IC50
Text: as §1, §2, §3, §4, §5

KRAS-G12D = KRAS-G12D (Homo sapiens, UniProt P01116, G12D); assay: SOS-catalyzed nucleotide exchange assay (Procedure A, TR-FRET), KRAS-G12D; type: biochemical; conditions: nucleotide exchange, read-out: KRAS G12D GNE IC50
Text: as §1, §2, §3, §4, §5

AsPC-1 cells = assay: Cellular phospho-ERK assay, AsPC-1 cells (homozygous KRAS-G12D); type: cell-based; conditions: read-out: AsPC1 pERK IC50
Description: Procedure for Cellular Phospho-ERK Assay in KRAS Wild Type and Mutant (G12D, G12V) Cell Lines
MKN-1 cells (JCRB JCRB0252) containing amplified wild-type KRAS, were cultured in growth medium that contains RPMI 1640-GlutaMAX™-I (ThermoFisher Scientific 61870) containing 10% heat inactivated fetal bovine serum (ThermoFisher Scientific 10091148), 1 mM sodium pyruvate and 10 mM HEPES. PANC08.13 cells (ATCC® CRL-2551™), containing homozygous KRAS-G12D activating mutation, were cultured in growth medium made of RPMI1640-GlutaMAX™-I (ThermoFisher Scientific 61870) containing 15% heat inactivated fetal bovine serum (ThermoFisher Scientific 10091148)). AsPC-1 cells (ATCC® CRL-1682™), containing homozygous KRAS-G12D activating mutation, were cultured in T150 flask in growth medium (RPMI medium 1640-GlutaMAX™-I (ThermoFisher Scientific 61870) containing 10% fetal bovine serum (ThermoFisher Scientific 10091148)). SW620 cells (ATCC® […]), containing homozygous KRAS-G12V activating mutation, were cultured in growth medium that contains RPMI 1640-GlutaMAX™-I (ThermoFisher Scientific 61870) containing 10% heat inactivated fetal bovine serum (ThermoFisher Scientific 10091148).
Cells for the assay were harvested in growth medium after TrypLE (ThermoFisher scientific 12604021) digestion and were seeded in a 384-well collagen coated cell culture plate (Corning 356702) at a density of 10,000-15,000 cells/20 μL/well, and incubated at 37° C., 5% CO2 overnight. The compound (with 10 mM stock concentration) dose-response titrations were prepared [30 μM final ERK detection assay concentration and 1:3 dilutions, 10-point dose response] and appropriate amounts (270 nL) of test compounds were dispensed in a 384-well intermediate plate using an Echo 550 liquid handler. 30 μL/well of RPMI medium 1640-GlutaMAX™—I was added to the intermediate plate and the contents of the intermediate plate (10 μL/well) were then transferred to the 384-well collagen coated cell culture plate, which was incubated at 37° C., 5% CO2 for 2 hours. After removal of medium from the collagen coated cell culture plate, cells were lysed in lysis buffer from Alpha SureFire® Ultra™ Multiplex p-ERK and total ERK assay kit (PerkinElmer MPSU-PTERK) containing Halt™ Protease and Phosphatase inhibitor cocktail (ThermoFisher Scientific 78446) at room temperature with constant shaking at 300 rpm for 30 minutes. The cell lysates were then transferred to an OptiPlate-384 plate (PerkinElmer 6005620), and the phosphorylation of ERK (p-ERK) and total ERK levels were detected by Alpha SureFire® Ultra™ Multiplex p-EEK kit and total ERK assay kit (PerkinElmer MPSU-PTERK) following the manufacturer's protocol. Assay plates were read on a En Vision Multimode Plate Reader (PerkinElmer), and the ratio of p-ERK vs. total ERK in each well was used as the final readout. Dose response curves were analyzed using a 4-parameter logistic model to calculate IC50 values using Spotfire software.

[1] = Homo sapiens, ASPC1, 2 h, KRAS-G12D, 2 hours
[2] = Homo sapiens, ASPC1, 2 h, 2 hours compound incubation

KRAS-G12V, sequence (P01116 with tags, fused parts or gaps isoform P01116-2 G12V): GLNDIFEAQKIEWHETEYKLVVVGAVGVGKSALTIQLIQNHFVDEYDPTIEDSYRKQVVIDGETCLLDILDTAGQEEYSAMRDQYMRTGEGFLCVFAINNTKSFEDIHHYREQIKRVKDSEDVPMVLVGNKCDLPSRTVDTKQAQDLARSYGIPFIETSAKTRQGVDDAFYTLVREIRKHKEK
KRAS-WT, sequence (P01116 with tags, fused parts or gaps isoform P01116-2): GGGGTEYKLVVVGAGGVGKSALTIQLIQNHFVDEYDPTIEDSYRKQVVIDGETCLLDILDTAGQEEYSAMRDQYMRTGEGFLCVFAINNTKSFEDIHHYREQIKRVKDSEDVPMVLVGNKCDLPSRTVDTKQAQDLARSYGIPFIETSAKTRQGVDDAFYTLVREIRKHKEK
KRAS-G12D, sequence (P01116 with tags, fused parts or gaps isoform P01116-2 G12D): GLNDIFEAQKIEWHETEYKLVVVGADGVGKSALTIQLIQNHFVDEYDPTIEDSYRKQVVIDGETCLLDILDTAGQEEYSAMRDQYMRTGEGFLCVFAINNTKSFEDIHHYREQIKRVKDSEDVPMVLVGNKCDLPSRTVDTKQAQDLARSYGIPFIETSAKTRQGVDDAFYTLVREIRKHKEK

IC50 (KRAS-WT)	IC50 (KRAS-G12V)	IC50 (KRAS-G12D)	IC50 (AsPC-1 cells; [1])	IC50 (AsPC-1 cells; [2])	IC50 (AsPC-1 cells; KRAS-G12D, 2 hours)	SMILES
91.2 nM	46.7 nM	26.4 nM	465 nM			C[C@@]1(O)COCCN(c2nc(OC[C@@]34CCCN3C[C@H](F)C4)nc3sc4c(-c5c(C6(F)CC6)c(F)cc6[nH]ncc56)nccc4c23)C1 [Ex-53, (6S)-4-(8-(6-fluoro-5-(1-fluorocyclopropyl)-1H-indazol-4-yl)-2-(((2R,7aS)-2-fluorotetrahydro-1H-pyrrolizin-7a(5H)-yl)methoxy)pyrido[4′,3′:4,5]thi-eno[2,3-d]pyrimidin-4-yl)-6-methyl-1,4-oxazepan-6-ol]
31.6 nM	19.4 nM	3.86 nM		206 nM		C[C@@]1(O)COCCN(c2nc(OC[C@]3(CN4C[C@H]5COC[C@H]5C4)CC3(F)F)nc3sc4c(-c5c(C6(F)CC6)c(Cl)cc6[nH]ncc56)nccc4c23)C1 [Ex-235, (6S)-4-(8-(6-chloro-5-(1-fluorocyclopropyl)-1H-indazol-4-yl)-2-(((R)-2,2-difluoro-1-(((3aR,6aS)-tetrahydro-1H-furo[3,4-c]pyrrol-5(3H)-yl)methyl)cyclopropyl)metho-xy)pyrido[4′,3′:4,5]thieno[2,3-d]pyrimidin-4-yl)-6-methyl-1,4-oxazepan-6-ol]
482 nM	340 nM	226 nM	1860 nM			C[C@@]1(O)COCCN(c2nc(OC[C@@]34CCCN3C[C@H](F)C4)nc3sc4c(-c5c6c(cc7[nH]ncc57)CCC6C(F)(F)F)nccc4c23)C1 (stereo partly drawn) [Ex-92]
9650 nM	4230 nM	288 nM		1310 nM		Cc1cc2cnn(C)c2c(-c2nccc3c2sc2nc(OC[C@@]45CCCN4C[C@H](F)C5)nc(N4CCOC[C@@](C)(O)C4)c23)c1C(F)(F)F [Ex-157, (6S)-4-(8-(1,5-dimethyl-6-(trifluoromethyl)-1H-indazol-7-yl)-2-(((2R,7aS)-2-fluorotetrahydro-1H-pyrrolizin-7a(5H)-yl)methoxy)pyrido[4′,3′:4,5]thieno[2,3-d]pyrimidin-4-yl)-6-methyl-1,4-oxazepan-6-ol]
10.2 nM	15.9 nM	5.28 nM	41.5 nM			CN(C)C[C@@]1(COc2nc(N3CCOC[C@@](C)(O)C3)c3c(n2)sc2c(-c4c(C5CC5)c(Cl)cc5[nH]ncc45)nncc23)CC1(F)F [Ex-287, (6S)-4-(8-(6-chloro-5-cyclopropyl-1H-indazol-4-yl)-2-(((R)-1-((dimethylamino)methyl)-2,2-difluorocyclopropyl)meth-oxy)pyrimido[5′,4′:4,5]thi-eno[2,3-d]pyridazin-4-yl)-6-methyl-1,4-oxazepan-6-ol]
352 nM	320 nM	74.6 nM		977 nM		C[C@@]1(O)COCCN(c2nc(OC[C@]3(CN4CCC[C@H]4CF)CC3(F)F)nc3sc4c(-c5c(C6(F)CC6)c(Cl)cc6[nH]ncc56)nccc4c23)C1 [Ex-247, (6S)-4-(8-(6-chloro-5-(1-fluorocyclopropyl)-1H-indazol-4-yl)-2-(((R)-2,2-difluoro-1-(((S)-2-(fluoromethyl)pyrrolidin-1-yl)methyl)cyclopropyl)metho-xy)pyrido[4′,3′:4,5]thieno[2,3-d]pyrimidin-4-yl)-6-methyl-1,4-oxazepan-6-ol]
78.8 nM	37.3 nM	42.2 nM			244 nM	CN(C)C1CC(F)(F)C2C[C@]12COc1nc(N2CCOC[C@@](C)(O)C2)c2c(n1)sc1c(-c3c(C4(F)CC4)c(Cl)cc4[nH]ncc34)nccc12 (stereo partly drawn) [Ex-271]
432 nM	123 nM	150 nM	1060 nM			CC1CCc2ccc(F)c(-c3nccc4c3sc3nc(OC[C@@]56CCCN5C[C@H](F)C6)nc(N5CCOC[C@@](C)(O)C5)c34)c21 (single isomer, unassigned) [Ex-118]
194 nM	84.8 nM	94.7 nM	434 nM			C[C@@]1(O)COCCN(c2nc(OC[C@@]34CCCN3C[C@H](F)C4)nc3sc4c(-c5c(-c6ccco6)c(C(F)(F)F)cc6[nH]ncc56)nccc4c23)C1 [Ex-78]
